Measured values from patent EP1283052A1, “Pharmaceutical composition containing caspase-8 and /or caspase-9 useful for overcoming glucocorticoid- and cancer therapy-induced apoptosis of tumours” (Deutsches Krebsforschungszentrum Stiftung des öffentlichen …, priority 2001, dated 2003).

How the values were obtained:
CD95-L, TRAIL and TNF-α = assay: Western blot of death ligand expression in P5 and CEM cells; assay type: cell-based, human; settings: cisplatin alone (1-5 µg/ml), both cell types; Fig. 2a
Procedure: • (a) Left: P5 an CEM cells were treated with cisplatin (1-5 µg/ml) in the absence or presence of DEX (1 µM) as indicated. Proteins were extracted and expression of CD95-L, TRAIL or TNF-α was detected by Western blot analysis. The size of the proteins in kDa is indicated. Right: HeLa and P5 were treated with CD95 agonistic antibody αAPO-1 (CD95, 1 µg/ml), recombinant TRAIL protein (TRAIL, 100 ng/ml) or recombinant TNF-α protein (TNF-α, 100 ng/ml) in the absence (white bars) or presence (black bars) of DEX (1 µM). 24 h later the percentage of apoptosis was determined by annexin-staining and FACS-analysis in untreated (CO) and stimulated cells at the time points indicated. • (b) P693 and CEM cells were treated with cisplatin (2 µg/ml) in the absence or presence of DEX as indicated. 24 and 48 h following treatment cells were lysed and caspase-8 activity was determined by a fluorescent caspase-8 assay and spectroscopy. • (c) P5 cells were stable transfected with empty vector (pcDNA3), or pcDNA3 vector encoding dominant negative FADD protein (FADD-DN). Proteins were extracted from both cell lines and expression of wildtype (WT) and FADD-DN (DN) was detected by Western blot. Left: Stable transfected P5 cells were treated with αAPO-1 (1 µg/ml) and 24 h later apoptosis was determined by staining with annexin/propidium iodide and flow-cytometry. […]

[1] = system: P693 lung carcinoma xenografts; assay: P693 lung carcinoma xenografts in nude mice, tumour volume; assay type: in vivo; settings: cisplatin 5mg/kg/week intraperitoneally for five weeks, absence of DEX; Fig. 1a
Procedure: (§1) • (a) Human epidermoid lung cancer cells (P693) were injected into nude mice. At a tumour volume of 500 mm^3 weekly treatment with cisplatin (5mg/kg/week) was started. Cisplatin was injected intraperitoneally in the absence (CIS) or presence (DEX/CIS) of DEX which was added to the drinking water (0.28 mg/L) for the duration of the experiment. […] As controls, tumor growth of xenografts from mice which received neither cisplatin nor DEX (CO) or from mice which received DEX only (DEX) was determined. The tumour volume in each animal was measured at weekly intervals for a period of 5 weeks. Data are presented as the means +/- SD of 6 to 8 animals. • (b) The human cervical carcinoma cell lines HeLa and P5 were γ-irradiated (10 Gy) or treated with cisplatin (2 µg/ml) in the absence (white bars) or presence (black bars) of DEX (1 µM). The percentage of apoptosis was measured in untreated (CO) and stimulated cells by annexin-staining and FACS-analysis at the time points indicated. (c) P5, P693 and human leukemic T cells (CEM) cells were treated with cisplatin (2 µg/ml) in the absence or presence of DEX as indicated. 24 and 48 h following treatment cells were lysed and caspase-3 activity was determined by a fluorescent caspase-3 assay and spectroscopy.

caspase-3 = assay: Fluorometric caspase-3 activity assay in CEM leukemic T cells; assay type: cell-based, human; settings: cisplatin 2 µg/ml alone, Fig. 1c
Procedure: as §1

N.N.[Cl][Pt][Cl] [cisplatin]
expression of DILs such as CD95-L, TRAIL and TNF-α (CD95-L, TRAIL and TNF-α): enhanced expression | tumour growth [1]: profound reduction of tumour growth | caspase-3 activity (caspase-3): responded earlier at 24 h with increased activity at 48 h
